Assay results reported in US20220280490A1, “TREATMENT OF FRAGILE X SYNDROME” (HEALX LTD, priority 2019, published 2022).

Key:
Type in all cases: in vivo, mouse
Conditions in all cases: 12 mg/kg ibudilast, compared with WT vehicle
Fmr1 KO2 mice [1] = assay: Contextual fear conditioning
Excerpt: (§1) Fmr1 knockout 2 (Fmr1 K02) mice were generated by deletion of the promoter and first exon of Fmr1. The Fmr1 KO2 it is both, protein and mRNA null. In this study we used Fmr1 KO2 and wild-type (WT) littermates generated on a C57BL/6J background and repeatedly backcrossed onto a C57BL/6J background for more than eight generations.
(§2) There were four treatment groups per compound in the study with 10 male mice used per treatment group (all at 8 weeks of age): Group 1: wild-type littermate mice treated with vehicle (WT-Veh), Group 2: Fmr1 KO2 mice treated with vehicle (KO-Veh), Group 3: Fmr1 KO2 mice treated with 12 mg/kg ibudilast (KO-ibudilast).
For experiments, all mice were tested once in the same apparatus. Prior to testing, mice were placed in the apparatus for some minutes before the experiment. The apparatus was cleaned with moist and dry tissues before testing each mouse. The aim was to create a low but constant background mouse odor for all experimental subjects. Testers were blind to the genotype and treatment during all testing and data analysis. We assessed weight loss, fur loss, walking, eyes open, eye discharges and general behavior. […]
(§3) Data were analyzed by one-way ANOVA with a Dunnett's multiple comparison post hoc test in which WT Vehicle group was used as reference and compared with all the other groups

Fmr1 KO2 mice [2] = assay: Three-chambered sociability task (social interaction)
Excerpt: as §1, §2
(§4) For experiments, all mice were tested once in the same apparatus. Prior to testing, mice were placed in the apparatus for some minutes before the experiment. The apparatus was cleaned with moist and dry tissues before testing each mouse. […] We assessed weight loss, fur loss, walking, eyes open, eye discharges and general behavior.
In the three-chambered sociability task, a subject mouse was evaluated for its exploration of a novel social stimulus (novel mouse). […] The time spent exploring the novel mice was scored as exploration ratio.
as §3

Fmr1 KO2 mice [3] = assay: Nesting
Excerpt: as §1, §2, §4
The test was performed in individual cages. […] Mice were placed individually into the nesting cages 1 hr. before the dark phase, and the results were assessed the next morning. Nest building was scored on a 5 point scale. […]
as §3

Fmr1 KO2 mice [4] = assay: Open field (hyperactivity)
Excerpt: as §1, §2
For experiments, all mice were tested once in the same apparatus. Prior to testing, mice were placed in the apparatus for some minutes before the experiment. […] We assessed weight loss, fur loss, walking, eyes open, eye discharges and general behavior.
The open-field apparatus was used to test hyperactivity. […] The number of squares entered by the whole body (locomotor activity) was counted. The movement of the mouse around the field was recorded with a video tracking device for 3 min (version NT4.0, Viewpoint).
as §3

CC(C)C(=O)c1c(C(C)C)nn2ccccc12 [ibudilast, 2-methyl-1-(2-propan-2-ylpyrazolo[1,5-a]pyridin-3-yl)propan-1-one]
fully rescued: fear conditioning (freezing response) (Fmr1 KO2 mice [1]) | sociability (exploration ratio) (Fmr1 KO2 mice [2]) | nesting (nest building score) (Fmr1 KO2 mice [3]) | open field (hyperactivity, locomotor activity) (Fmr1 KO2 mice [4])
